What all share (format): functional
Experiment [1] is filed under the species Cavia porcellus. The experiment in a line: Relative affinity in guinea pig ileum(GPI) was determined.
Experiment [2] is filed under the species Cavia porcellus. Description: The concentration required to produce 50% of the maximal effect in guinea pig ileum(GPI).
For experiment [3], the species on record is Cavia porcellus. The experiment in a line: Intrinsic activity in guinea pig ileum(GPI) was determined.
The species entered for experiment [4] is Oryctolagus cuniculus. The experiment in a line: The concentration required to produce 50% of the maximal effect in rabbit mesenteric vein(RMV) at 10e-4 M; Inactive.
The species entered for experiment [5] is Cavia porcellus. Description: The concentration required to produce 50% of the maximal effect in guinea pig trachea(GPT) at 10e-4 M; Inactive.
The species named for experiment [6] is Oryctolagus cuniculus. The experiment in a line: Relative affinity in rabbit mesenteric vein(RMV) was determined.
The species entered for experiment [7] is Oryctolagus cuniculus. Description: Intrinsic activity in rabbit mesenteric vein(RMV) was determined.
The species named for experiment [8] is Oryctolagus cuniculus. The experiment in a line: The concentration required to produce 50% of the maximal effect in rabbit mesenteric vein(RMV).
The species named for experiment [9] is Cavia porcellus. The experiment in a line: Intrinsic activity in guinea pig trachea(GPT) was determined.
The species named for experiment [10] is Cavia porcellus. The experiment in a line: The concentration required to produce 50% of the maximal effect in guinea pig trachea(GPT).
The species entered for experiment [11] is Cavia porcellus. Description: Relative affinity in guinea pig trachea(GPT) was determined.

Activity calls are given as the source filed them. The calls are words filed in the database; no cut-off is given here. Where a SMILES comes first, the peptide text is derived from it. The star is where a group is joined. Mob = COc1ccc(C*)cc1; Bn = c1ccc(C*)cc1

Consider `CC(C)C[C@@H]1NC(=O)CNC(=O)[C@H](Cc2ccccc2)NC(=O)[C@H](Cc2ccccc2)NC(=O)[C@@H](N)CSSC[C@@H](C(N)=O)NC1=O`, for which, in the experiment filed under Cavia porcellus [1], the AR is listed as 0.02. Also, the pD2 in the experiment listed under Cavia porcellus [2] stood at 4.83. Moreover, in the experiment listed under Cavia porcellus [3], the “Alpha E” value is 0.7.

As for `CC(C)C[C@H]1NC(=O)CNC(=O)[C@@H](Cc2ccccc2)NC(=O)[C@H](Cc2ccccc2)NC(=O)[C@@H](N)CSSC[C@H](C(N)=O)NC1=O`, the pD2 result in the experiment listed under Oryctolagus cuniculus [4] and in the experiment listed under Cavia porcellus [5] was “inactive” throughout.

Consider `COc1ccc(CSC[C@H](N)C(=O)N[C@@H](CCC(N)=O)C(=O)N[C@@H](Cc2ccccc2)C(=O)N[C@@H](Cc2ccccc2)C(=O)NCC(=O)N[C@@H](CC(C)C)C(=O)N[C@@H](CSCc2ccccc2)C(N)=O)cc1` (H-C(Mob)QFFGLC(Bn)-NH2), for which the AR in the experiment filed under Cavia porcellus [1] came to 0.8; in the experiment filed under Oryctolagus cuniculus [6], 2.8; in the experiment filed under Cavia porcellus [11], 3. Also, the “Alpha E” value was 0.4 in the experiment filed under Oryctolagus cuniculus [7], 0.8 in the experiment filed under Cavia porcellus [9] and 1.2 in the experiment filed under Cavia porcellus [3]. Besides, the pD2 in the experiment filed under Cavia porcellus [2] is recorded as 6.37; in the experiment listed under Oryctolagus cuniculus [8], 5.98; in the experiment filed under Cavia porcellus [10] it was 5.22.

The record behind these values is ChEMBL document CHEMBL1122827 (1985).
